This passage reports IC50 results from patent US11708367B2, “Compounds for the treatment of kinase-dependent disorders” (Exelixis, Inc., priority 2018, dated 2023).

Common to all, as to format: biochemical
The target in assay [1] is Human Axl (Homo sapiens (Human), UniProt P30530, Q764R). Nature of the assay: Human AXL kinase assay (33P radiometric, KinaseProfiler). To be noted: 10 μM ATP. As for the experimental part: (§1) Kinase activity and compound inhibition were investigated using the ^33P-Phosphoryl transfer radiometric kinase assay, performed using the KinaseProfiler™ service of Eurofins Pharma Discovery Services UK Limited. Dose-response experiments were performed using nine compound concentrations in a 96-well microtiter plate. For each assay, all compounds were prepared to a 50× final assay concentration (50 μM) in 100% DMSO, then diluted in a half-log series, with the final top concentration at 1 μM. This working stock of the compound was added to the assay well as the first component in the reaction, followed by the remaining components as detailed in the following assay protocols below. The positive control wells (100% kinase activity) contain all components of the reaction including 2% DMSO (control for solvent effects), except the compound of interest. Blank wells contain all components of the reaction, with the reference inhibitor, staurosporine. This reference compound was used to abolish kinase activity and generated the 0% kinase activity base-line. IC50 values were calculated by nonlinear regression analysis using the sigmoidal dose-response (variable slope) curve fit on XLFit version 5.3 (ID Business Solutions).
Human Axl, sequence (P30530 473-894 Q764R): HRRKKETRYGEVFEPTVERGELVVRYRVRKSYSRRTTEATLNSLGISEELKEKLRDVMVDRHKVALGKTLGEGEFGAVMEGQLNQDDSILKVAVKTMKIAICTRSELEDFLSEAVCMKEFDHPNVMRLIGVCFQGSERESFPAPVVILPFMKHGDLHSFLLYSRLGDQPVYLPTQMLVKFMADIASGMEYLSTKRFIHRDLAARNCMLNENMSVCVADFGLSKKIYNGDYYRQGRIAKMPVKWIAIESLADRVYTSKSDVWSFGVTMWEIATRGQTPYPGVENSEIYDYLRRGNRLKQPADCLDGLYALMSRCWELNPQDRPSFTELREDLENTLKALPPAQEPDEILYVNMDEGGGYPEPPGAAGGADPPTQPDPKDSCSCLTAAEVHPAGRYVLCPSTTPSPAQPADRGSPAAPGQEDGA
Human Axl (residues H473-A894 with Q764R, 161 nM) was incubated with 8 mM MOPS pH 7.0, 0.2 mM EDTA, 250 μM KKSRGDYMTMQIG (SEQ ID NO. 43), 10 mM magnesium acetate and 10 μM [γ-33P-ATP]. The reaction was initiated by the addition of the Mg/ATP mix. After incubation for 40 minutes at room temperature, the reaction was stopped by the addition of phosphoric acid to a concentration of 0.5%. A reaction aliquot of 10 μL was then spotted onto a P30 filtermat and washed four times for 4 minutes in 0.425% phosphoric acid and once in methanol prior to drying and scintillation counting. Incorporated ^33P was measured using the Wallac Microbeta scintillation counter (Perkin Elmer).

Assay [2] deals with Mer (Homo sapiens (Human), UniProt Q12866). Put plainly: Human Mer kinase assay (33P radiometric, KinaseProfiler). To be noted: 10 μM ATP. The protocol:
as §1
Human Mer (residues R557-E882 with H628Q and R794A, 0.7 nM) was incubated with 8 mM MOPS pH 7.0, 0.2 mM EDTA, 30 mM NaCl, 250 μM GGMEDIYFEFMGGKKK (SEQ ID NO. 44), 10 mM magnesium acetate, and 10 μM [γ-33P-ATP]. The reaction was initiated by the addition of the Mg/ATP mix. After incubation for 40 minutes at room temperature, the reaction was stopped by the addition of phosphoric acid to a concentration of 0.5%. A reaction aliquot of 10 μL was then spotted onto a P30 filtermat and washed four times for 4 minutes in 0.425% phosphoric acid and once in methanol prior to drying and scintillation counting. Incorporated 33P was measured using the Wallac Microbeta scintillation counter (Perkin Elmer).

The target in assay [3] is Met (Homo sapiens (Human), UniProt P08581). Put plainly: Human Met kinase assay (33P radiometric, KinaseProfiler). The note with it: 10 μM ATP, read-out: c-Met IC50. The protocol: as §1
Human Met (residues R974-S1390 with A1209G and V1290L, 3.4 nM) was incubated with 8 mM MOPS pH 7.0, 0.2 mM EDTA, 250 µM KKKGQEEEYVFIE (SEQ ID NO. 45), 1 mM sodium orthovanadate, 5 mM […], 10 mM magnesium acetate, and 10 μM [γ-33P-ATP]. The reaction was initiated by the addition of the Mg/ATP mix. After incubation for 40 minutes at room temperature, the reaction was stopped by the addition of phosphoric acid to a concentration of 0.5%. A reaction aliquot of 10 μL was then spotted onto a P30 filtermat and washed four times for 4 minutes in 0.425% phosphoric acid and once in methanol prior to drying and scintillation counting. Incorporated 33P was measured using the Wallac Microbeta scintillation counter (Perkin Elmer).

Mer, sequence (Q12866 557-882): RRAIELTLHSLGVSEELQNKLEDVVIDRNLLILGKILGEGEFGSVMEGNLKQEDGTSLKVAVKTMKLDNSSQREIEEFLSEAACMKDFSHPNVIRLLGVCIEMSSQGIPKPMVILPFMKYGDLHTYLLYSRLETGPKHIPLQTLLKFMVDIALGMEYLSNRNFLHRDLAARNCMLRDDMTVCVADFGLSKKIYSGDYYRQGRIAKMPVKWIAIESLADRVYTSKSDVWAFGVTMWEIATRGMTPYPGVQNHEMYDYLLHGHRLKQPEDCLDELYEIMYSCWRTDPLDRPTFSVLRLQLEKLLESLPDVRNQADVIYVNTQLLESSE

By IC50 is commonly meant the concentration that inhibits the measured activity by half. For `O=C(Nc1ccc(F)cc1)C1(C(=O)Nc2ccc(Oc3ncnc4cc(Cl)cnc34)cc2)CC1` [Compound 12, 1-N-[4-(7-chloropyrido[3,2-d]pyrimidin-4-yl)oxyphenyl]-1-N′-(4-fluorophenyl)cyclo-propane-1,1-dicarboxamide], the IC50 in assay [1] is over 1000 nM; in assay [2], 100 to 1000 nM; in assay [3], 100 to 1000 nM.

In the case of `O=C(Nc1ccc(F)cc1)C1(C(=O)Nc2ccc(Oc3ncnc4cc(Br)cnc34)cc2)CC1` [Compound 13, 1-N-[4-(7-bromopyrido[3,2-d]pyrimidin-4-yl)oxyphenyl]-1-N′-(4-fluorophenyl)cyclo-propane-1,1-dicarboxamide], the IC50 in assay [1], in assay [2] and in assay [3] was 100 to 1000 nM each time.

As for `COc1cnc2c(Oc3ccc(NC(=O)C4(C(=O)Nc5ccc(F)cc5)CC4)cc3)ncnc2c1` [Compound 16, 1-N′-(4-fluorophenyl)-1-N-[4-(7-methoxy-pyrido[3,2-d]pyrimidin-4-yl)oxyphenyl]cyclo-propane-1,1-dicarboxamide], the figures for the IC50 in assay [1], in assay [2] and in assay [3] were 100 to 1000 nM, 100 to 1000 nM and 10 to 100 nM, respectively.

Turning to `Cc1cc2ncnc(Oc3ccc(NC(=O)C4(C(=O)Nc5ccc(F)cc5)CC4)cc3)c2nc1C` [Compound 43, 1-N-[4-(6,7-dimethyl-pyrido[3,2-d]pyrimidin-4-yl)oxyphenyl]-1-N′-(4-fluorophenyl)cyclo-propane-1,1-dicarboxamide], the half-inhibitory concentration (IC50) in assay [1], in assay [2] and in assay [3] was 100 to 1000 nM in each case.

For the compound `O=C(Nc1ccc(F)cc1)C1(C(=O)Nc2ccc(Oc3ncnc4cc5c(nc34)CCCC5)cc2)CC1` [Compound 52, 1-N′-(4-fluorophenyl)-1-N-[4-(6,7,8,9-tetrahydro-pyrimido[5,4-b]quinolin-4-yloxy)phenyl]cyclo-propane-1,1-dicarboxamide], the IC50 in assay [1], in assay [2] and in assay [3] was 100 to 1000 nM each time.

Take `COc1cc2ncnc(Oc3ccc(NC(=O)C4(C(=O)Nc5ccc(F)cc5)CC4)cc3)c2nc1C#N` [Compound 57, 1-N-[4-(6-cyano-7-methoxypyrido[3,2-d]pyrimidin-4-yl)oxyphenyl]-1-N′-(4-fluorophenyl)cyclopropane-1,1-dicarboxamide]: the IC50 was 100 to 1000 nM in assay [1], 10 to 100 nM in assay [2] and 100 to 1000 nM in assay [3].

Take `O=C(Nc1ccc(F)cc1)C1(C(=O)Nc2ccc(Oc3ncnc4cnccc34)cc2)CC1` [Compound 85, 1-N′-(4-fluorophenyl)-1-N-(4-pyrido[3,4-d]pyrimidin-4-yloxyphenyl)cyclopropane-1,1-dicarboxamide]: the IC50 in assay [1], in assay [2] and in assay [3] was 100 to 1000 nM in each case.

Take `O=C(Nc1ccc(F)cc1)C1(C(=O)Nc2ccc(Oc3ncnc4cnc(Cl)cc34)cc2)CC1` [Compound 88, 1-N-[4-(6-chloropyrido[3,4-d]pyrimidin-4-yl)oxy-phenyl]-1-N′-(4-fluoro-phenyl)cyclopropane-1,1-dicarboxamide]: the IC50 in assay [1] was 100 to 1000 nM; in assay [2] it was 100 to 1000 nM; in assay [3], over 1000 nM.

With `O=C(Nc1ccc(F)cc1)C1(C(=O)Nc2ccc(Oc3ncnc4ccncc34)cc2)CC1` [Compound 95, 1-N′-(4-fluorophenyl)-1-N-(4-pyrido[4,3-d]pyrimidin-4-yloxyphenyl)cyclo-propane-1,1-dicarboxamide], the IC50 in assay [1], in assay [2] and in assay [3] was 100 to 1000 nM throughout.

As to `O=C(Nc1ccc(F)cc1)C1(C(=O)Nc2ccc(Oc3ncnc4cc(Cl)ncc34)cc2)CC1` [Compound 101, 1-N-[4-(7-chloropyrido[4,3-d]pyrimidin-4-yl)oxy-phenyl]-1-N′-(4-fluorophenyl)cyclo-propane-1,1-dicarboxamide], the IC50 in assay [1], in assay [2] and in assay [3] was 100 to 1000 nM each time.

On to `N#Cc1ccc2ncnc(Oc3ccc(NC(=O)C4(C(=O)Nc5ccc(F)cc5)CC4)cc3)c2c1` [Compound 106, 1-N-[4-(6-cyanoquinazolin-4-yl)oxyphenyl]-1-N′-(4-fluorophenyl)cyclopropane-1,1-dicarboxamide], for which the figures for the concentration for half-maximal inhibition (IC50) in assay [1], in assay [2] and in assay [3] were over 1000 nM, 100 to 1000 nM and over 1000 nM, respectively.
